Results published in US10759781B2, “Substituted guanidine derivatives” (UBE INDUSTRIES, LTD., priority 2015, dated 2020).
Where a name gives a salt, the structure may show the parent alone.

These compounds were tested against T1, Human VAP-1 enzyme (Homo sapiens, UniProt Q16853) (assay: Human VAP-1 enzyme inhibition test). Settings: 1 h; compound 30 nM; 14C-benzylamine 100 μM; read-out: inhibition ratio (human VAP-1 enzyme).
T1 construct: purchased R&D Systems, Inc
T1 sequence (Q16853 1-763): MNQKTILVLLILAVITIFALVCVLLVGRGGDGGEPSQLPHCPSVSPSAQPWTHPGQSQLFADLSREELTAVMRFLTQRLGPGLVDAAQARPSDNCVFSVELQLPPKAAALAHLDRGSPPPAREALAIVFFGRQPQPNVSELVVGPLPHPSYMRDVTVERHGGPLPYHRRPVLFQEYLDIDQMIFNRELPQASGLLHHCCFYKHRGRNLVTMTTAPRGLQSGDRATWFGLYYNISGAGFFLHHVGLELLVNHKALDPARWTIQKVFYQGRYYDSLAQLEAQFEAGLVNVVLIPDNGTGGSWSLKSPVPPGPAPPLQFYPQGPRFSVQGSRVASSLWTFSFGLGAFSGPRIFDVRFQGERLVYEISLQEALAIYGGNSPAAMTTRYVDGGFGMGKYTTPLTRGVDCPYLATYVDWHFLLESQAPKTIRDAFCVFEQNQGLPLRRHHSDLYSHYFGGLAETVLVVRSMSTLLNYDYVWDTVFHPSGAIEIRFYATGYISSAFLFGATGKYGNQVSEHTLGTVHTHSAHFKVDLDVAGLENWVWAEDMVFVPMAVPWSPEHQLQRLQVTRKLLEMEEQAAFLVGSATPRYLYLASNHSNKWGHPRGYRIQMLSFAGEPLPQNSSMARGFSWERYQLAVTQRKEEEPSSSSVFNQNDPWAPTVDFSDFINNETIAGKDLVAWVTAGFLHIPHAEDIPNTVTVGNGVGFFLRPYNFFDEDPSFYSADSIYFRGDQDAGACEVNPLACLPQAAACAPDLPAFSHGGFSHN
Format: biochemical
Experimental: Human VAP-1 enzyme inhibition test
This test was conducted by modifying the method of P. H. Yu et al. (Diabetologia 40 1243 (1997)). Human VAP-1 enzyme (R&D Systems, Inc.) was pre-incubated in a 96-well plate with the compound dissolved in dimethylsulfoxide at room temperature for 20 minutes. Next, in a solution to the final volume of 200 μL, the enzyme reaction solution was incubated with ^14C-benzylamine (final concentration 100 μM) at 37° C. for 1 hour. The reaction was terminated by the addition of 100 μL of 2 M citric acid solution to the reaction solution. The oxidative product was extracted using a toluene/ethyl acetate mixture and the radioactivity was measured with a liquid scintillation counter. The inhibition ratio of the compound was calculated using the following equation. Inhibition ratio={1−[VAP-1 enzyme activity after treatment with the compound]/[VAP-1 enzyme activity in the presence of dimethylsulfoxide alone without the compound]}×100

Structure (SMILES)	inhibition at 0.03 µM [%]
N=C(N)NC(=O)OCc1cccc(-c2cnc(N3CC(=NOCC(F)F)C3)nc2)c1F [Example 6, 3-(2-{3-[(2,2-Difluoroethoxy)imino]azetidin-1-yl}pyrimidin-5-yl)-2-fluorobenzyl carbamimidoylcarbamate]	≥ 50
N=C(N)NC(=O)OCc1cccc(-c2cnc(N3CC(=NOCC(F)(F)F)C3)nc2)c1F [Example 7, 2-Fluoro-3-(2-{3-[(2,2,2-trifluoroethoxy)imino]azetidin-1-yl}pyrimidin-5-yl)benzyl carbamimidoylcarbamate]	≥ 50
N=C(N)NC(=O)OCc1cccc(-c2cnc(N3CC(=NOCCCF)C3)nc2)c1F [Example 8, 2-Fluoro-3-(2-{3-[(3-fluoropropoxy)imino]azetidin-1-yl}pyrimidin-5-yl)benzyl carbamimidoylcarbamate]	≥ 50
CC(=O)OCCON=C1CN(c2ncc(-c3cccc(COC(=O)NC(=N)N)c3F)cn2)C1 [Example 25, 2-[({1-[5-(3-{[(Carbamimidoylcarbamoyl)oxy]methyl}-2-fluorophenyl)pyrimidin-2-yl]azetidin-3-ylidene}amino)oxy]ethyl acetate]	≥ 50
CON=C1CN(c2ncc(-c3cccc(COC(=O)NC(=N)N)c3F)cc2C#N)C1 [Example 43, 3-{5-Cyano-6-[3-(methoxyimino)azetidin-1-yl]pyridin-3-yl}-2-fluorobenzyl carbamimidoylcarbamate]	≥ 50
CON=C1CN(c2ncc(-c3cccc(COC(=O)NC(=N)N)c3F)cc2Cl)C1 [Example 44, 3-{5-Chloro-6-[3-(methoxyimino)azetidin-1-yl]pyridin-3-yl}-2-fluorobenzyl carbamimidoylcarbamate]	≥ 50
CON=C1CN(c2ncc(-c3cccc(COC(=O)NC(=N)N)c3F)cc2C(F)F)C1 [Example 45, 3-{5-(Difluoromethyl)-6-[3-(methoxyimino)azetidin-1-yl]pyridin-3-yl}-2-fluorobenzyl carbamimidoylcarbamate]	≥ 50
CON=C1CN(c2ncc(-c3cccc(COC(=O)NC(=N)N)c3F)cc2C2CC2)C1 [Example 46, 3-{5-Cyclopropyl-6-[3-(methoxyimino)azetidin-1-yl]pyridin-3-yl}-2-fluorobenzyl carbamimidoylcarbamate]	≥ 50
CCc1cc(-c2cccc(COC(=O)NC(=N)N)c2F)cnc1N1CC(=NOC)C1 [Example 47, 3-{5-Ethyl-6-[3-(methoxyimino)azetidin-1-yl]pyridin-3-yl}-2-fluorobenzyl carbamimidoylcarbamate]	≥ 50
COCc1cc(-c2cccc(COC(=O)NC(=N)N)c2F)cnc1N1CC(=NOC)C1 [Example 49, 2-Fluoro-3-{6-[3-(methoxyimino)azetidin-1-yl]-5-(methoxymethyl)pyridin-3-yl}benzyl carbamimidoylcarbamate]	≥ 50
CON=C1CN(c2ncc(-c3cccc(COC(=O)NC(=N)N)c3F)cc2OC)C1 [Example 50, 2-Fluoro-3-{5-methoxy-6-[3-(methoxyimino)azetidin-1-yl]pyridin-3-yl}benzyl carbamimidoylcarbamate]	≥ 50
N=C(N)NC(=O)OCc1cccc(-c2cnc(N3CC(=NOCCO)C3)nc2)c1F [Example 71, 2-Fluoro-3-(2-{3-[(2-hydroxyethoxy)imino]azetidin-1-yl}pyrimidin-5-yl)benzyl carbamimidoylcarbamate hydrochloride]	≥ 50
N=C(N)NC(=O)OCc1cccc(-c2cnc(N3CC(=NOCCCCO)C3)nc2)c1F [Example 73, 2-Fluoro-3-(2-{3-[(4-hydroxybutoxy)imino]azetidin-1-yl}pyrimidin-5-yl)benzyl carbamimidoylcarbamate]	≥ 50
N=C(N)NC(=O)OCc1cccc(-c2cnc(N3CC(=NOCCOCCO)C3)nc2)c1F [Example 74, 2-Fluoro-3-[2-(3-{[2-(2-hydroxyethoxy)ethoxy]imino}azetidin-1-yl)pyrimidin-5-yl]benzyl carbamimidoylcarbamate]	≥ 50
N=C(N)NC(=O)OCc1cccc(-c2cnc(N3CC(=NOCC(CO)CF)C3)nc2)c1F (stereo not shown) [Example 75, 2-Fluoro-3-[2-(3-{[3-fluoro-2-(hydroxymethyl)propoxy]imino}azetidin-1-yl)pyrimidin-5-yl]benzyl carbamimidoylcarbamate]	≥ 50
COC(CO)CCON=C1CN(c2ncc(-c3cccc(COC(=O)NC(=N)N)c3F)cn2)C1 (stereo not shown) [Example 76, 2-Fluoro-3-(2-{3-[(4-hydroxy-3-methoxybutoxy)imino]azetidin-1-yl}pyrimidin-5-yl)benzyl carbamimidoylcarbamate]	≥ 50
CC(=O)OCC(CO)CON=C1CN(c2ncc(-c3cccc(COC(=O)NC(=N)N)c3F)cn2)C1 (stereo not shown) [Example 77, 3-[({1-[5-(3-{[(Carbamimidoylcarbamoyl)oxy]methyl}-2-fluorophenyl)pyrimidin-2-yl]azetidin-3-ylidene}amino)oxy]-2-(hydroxymethyl)propyl acetate]	≥ 50
N=C(N)NC(=O)OCc1cccc(-c2cnc(N3CC(=NOCC(CO)CO)C3)nc2)c1F [Example 92, 2-Fluoro-3-[2-(3-{[3-hydroxy-2-(hydroxymethyl)propoxy]imino}azetidin-1-yl)pyrimidin-5-yl]benzyl carbamimidoylcarbamate]	≥ 50
N=C(N)NC(=O)OCc1cccc(-c2cnc(N3CC(=NOCC(O)CO)C3)nc2)c1F (stereo not shown) [Example 93, 3-(2-{3-[(2,3-Dihydroxypropoxy)imino]azetidin-1-yl}pyrimidin-5-yl)-2-fluorobenzyl carbamimidoylcarbamate]	≥ 50
COCC(CO)CON=C1CN(c2ncc(-c3cccc(COC(=O)NC(=N)N)c3F)cn2)C1 (stereo not shown) [Example 100, 2-Fluoro-3-[2-(3-{[3-hydroxy-2-(methoxymethyl)propoxy]imino}azetidin-1-yl)pyrimidin-5-yl]benzyl carbamimidoylcarbamate]	≥ 50
N=C(N)NC(=O)OCc1cccc(-c2cnc(N3CC(=NOCC(F)CO)C3)c(F)c2)c1F (stereo not shown) [Example 103, 2-Fluoro-3-(5-fluoro-6-{3-[(2-fluoro-3-hydroxypropoxy)imino]azetidin-1-yl}pyridin-3-yl)benzyl carbamimidoylcarbamate]	≥ 50
COCC(O)CON=C1CN(c2ncc(-c3cccc(COC(=O)NC(=N)N)c3F)cn2)C1 (stereo not shown) [Example 104, 2-Fluoro-3-(2-{3-[(2-hydroxy-3-methoxypropoxy)imino]azetidin-1-yl}pyrimidin-5-yl)benzyl carbamimidoylcarbamate]	≥ 50
N=C(N)NC(=O)OCc1cccc(-c2cnc(N3CC(=NO)C3)c(F)c2)c1F [Example 107, 2-Fluoro-3-{5-fluoro-6-[3-(hydroxyimino)azetidin-1-yl]pyridin-3-yl}benzyl carbamimidoylcarbamate]	≥ 50
CC(C)(C)OC(=O)CON=C1CN(c2ncc(-c3cccc(COC(=O)NC(=N)N)c3F)cn2)C1 [Example 108, tert-Butyl 2-[({1-[5-(3-{[(carbamimidoylcarbamoyl)oxy]methyl}-2-fluorophenyl)pyrimidin-2-yl]azetidin-3-ylidene}amino)oxy]acetate]	≥ 50
CNC(=O)CON=C1CN(c2ncc(-c3cccc(COC(=O)NC(=N)N)c3F)cn2)C1 [Example 111, 2-Fluoro-3-[2-(3-{[2-(methylamino)-2-oxoethoxy]imino}azetidin-1-yl)pyrimidin-5-yl]benzyl carbamimidoylcarbamate]	≥ 50
N=C(N)NC(=O)OCc1cccc(-c2cnc(N3CC(=NOCCC(N)=O)C3)nc2)c1F [Example 112, 3-(2-{3-[(3-Amino-3-oxopropoxy)imino]azetidin-1-yl}pyrimidin-5-yl)-2-fluorobenzyl carbamimidoylcarbamate]	≥ 50
CNC(=O)CCON=C1CN(c2ncc(-c3cccc(COC(=O)NC(=N)N)c3F)cn2)C1 [Example 113, 2-Fluoro-3-[2-(3-{[3-(methylamino)-3-oxopropoxy]imino}azetidin-1-yl)pyrimidin-5-yl]benzyl carbamimidoylcarbamate]	≥ 50
CCOC(=O)CCCON=C1CN(c2ncc(-c3cccc(COC(=O)NC(=N)N)c3F)cn2)C1 [Example 114, Ethyl 4-[({1-[5-(3-{[(carbamimidoylcarbamoyl)oxy]methyl}-2-fluorophenyl)pyrimidin-2-yl]azetidin-3-ylidene}amino)oxy]butanoate]	≥ 50
